# Measured values published in patent US6878546B2, “Product and method for swelling a cell nucleus without DNA replication” (Brandeis University, priority 1993, dated 2005).
# Read-outs that look alike come from different tables or passages of the source.
# Legend:
# [1] = test system: Xenopus erythrocyte nuclei; experiment: Induction optimization: P^32-dCTP incorporation into DNA of pretreated nuclei in activating egg extract, cycloheximide added at different times; format: biochemical; conditions: total 60 minutes at 25° C.
# Procedure: Induction optimization was carried for Xenopus as describe below (see also Example 2, infra, for further optimization experiments). Xenopus erythrocyte nuclei were isolated and pretreated with lysolecithin and trypsin as described in Example 2 (described below). An activating egg extract was prepared from hardened eggs which were induced for 10 minutes as described above. Both the activating egg extract and the pretreated nuclei were kept on ice (about 4° C.). The activating egg extract was supplemented with 1 mM ATP (not used in the other examples described herein), 10 μg/ml creatine phosphokinase, 10 mM creatine phosphate, 10 μCi P^32-dCTP and combined with pretreated nuclei (about 200 nuclei/μl). Individual aliquots containing activated nuclei were shifted from 4° C. to 25° C. […] After 60 minutes, P^32-dCTP incorporation into newly synthesized DNA was determined.
# erythrocyte nuclei = experiment: Supplements to CSF extract: chromatin assembly and later DNA synthesis in activating egg extract; format: biochemical, Xenopus
# Source text: After further pretreatment in CSF extract, the nuclei may be activated by adding 9 volumes of “prepared activating egg extract.” DNA replication, measured by incorporation of labelled nucleotides into DNA strands, may be used to determine the extent to which prior treatment in CSF extract enhances nuclear activation in activating extract. Labelled nucleotides useful in measuring nuclear DNA replication include microcurie amounts of P^32-dCTP for radioactive measurement of newly synthesized DNA, 16-50 μM biotinylated-dUTP or BrdUTP for fluorescent measurement of newly synthesized DNA, and 250 μM BrdUTP for density labelling of newly synthesized DNA.
# Several supplements to CSF extract, in the proper concentration, increased the ability of CSF extract to enhance activation activity without resulting in premature DNA synthesis activity. Useful supplements include β-glycerol-PO4, Ca^2+, and protein kinase inhibitors. The addition of β-glycerol-PO4 increased the rate at which negatively supercoiled DNA relaxed in CSF extract and was subsequently assembled into chromatin. […] Beta-glycerol-PO4 is an inhibitor of phosphatase activity and may act by increasing the level of the phosphorylated functionally-active form of topoisomerase II in the CSF extract. […]
# [2] = test system: Xenopus red blood cells nuclei; conditions: for Cpm Incorporated After X Minutes: 23° C.
# Procedure: The affect of cAMP on DNA replication in activated Xenopus red blood cells was determined.
# Cyclic-AMP was then added to separate aliquots to yield final concentrations of 0.0 μM, 0.1 μM, 1.0 μM, or 10 μM.
# Each aliquot was warmed to 23° C. and sampled over time to determine P^32-dCTP incorporation into replicated DNA. At each time point, a 7 μl aliquot was taken, frozen on dry ice, and later thawed and digested by the addition of 10 μl replication sample buffer (80 mM Tris (pH 8.0), 8 mM EGTA, 0.13% phosphoric acid, 10% Ficoll, 5% SDS, 0.2% bromphenol blue) containing proteinase K (1.0 mg/ml) for 2 hours at room temperature. Incorporated radioactivity was analyzed by electrophoresis on a 0.8% agarose gel (50V, 20 hours) followed by vacuum drying the gel and counting on a Betascope.
# [3] = test system: Xenopus erythrocyte nuclei; experiment: DNA replication in activating egg extract after further pretreatment in CSF extract supplemented with DMAP; format: biochemical; conditions: 5 mM DMAP in CSF extract; FIG. 2
# Procedure: Addition of 6-dimethylaminopurine (DMAP) to CSF extracts was used to further pretreat Xenopus erythrocyte nuclei and stimulate subsequent DNA replication in activating egg extract. DMAP can be used to inhibit nucleic acid synthesis and protein kinase activity. Xenopus erythrocyte nuclei were isolated and pretreated as described in Example 1 above, and incubated in thawed “prepared CSF extract” supplemented with 80 mM β-glycerol-PO4, and 5 μg/ml nocodazole at a concentration of 2000 nuclei/μl. Further pretreatment was carried out by incubation for 30 minutes at 4° C., then 30 minutes at 25° C., then 60 minutes at 4° C. Half the samples were supplemented with 5 mM DMAP before addition of the nuclei. After the two hours of incubation, each sample was diluted with 9 volumes of activating egg extract, supplemented with 5 μg/ml nocodazole (this dose of nocodazole slows down the rate of replication) and approximately 160 μCi/ml P^32-dCTP. Aliquots were removed over time to measure DNA replication.
# [4] = test system: human fetal liver erythroid cell nuclei; experiment: Activation of human fetal liver erythroid cell nuclei in activating extract (swelling, replication, chromosome formation); format: biochemical; conditions: aphidicolin added at T=0
# Procedure: Step 5: Activation of erythroid cell nuclei. Nuclear swelling, envelope formation, and replication were carried out on human fetal liver erythroid cell nuclei prepared using the optimal conditions described in steps 1-4 above. […] The resulting nuclei concentration was about 200/μl.
# The following measurement were taken: DNA synthesis was monitored using extract containing P^32dCTP by gel electrophoresis; histone H1 kinase was measured; and samples, labelled with biotinylated-dUTP were taken for cytological analysis of DNA replication and nuclear envelope breakdown.
# Experiments were also carried out to determine whether nuclear swelling was dependent on DNA synthesis, by activating nucleic in the presence of aphidicolin (added at T=0).
# Swelled and replicated nuclei were treated with Cyclin-Δ90 or CSF extract. Cyclin-Δ90 was added to activating extract to obtain prophase mitotic chromosomes, while CSF extract was added to obtain metaphase chromosomes and nuclear envelope breakdown.
# [5] = test system: Xenopus red blood cells nuclei; experiment: DNA replication in activated nuclei in caffeine supplemented activating egg extract; format: biochemical; conditions: caffeine at 1.0 mM in the presence of 0.3 μM cAMP; compared with 0.2 mM and 5.0 mM; FIG. 1
# Procedure: The experimental conditions used were as described in Example 1 with the following changes: the concentration of cAMP was set at 0.3 μM and caffeine was added to the activating egg extract to a concentration of either 0.2 mM, 1.0 mM, or 5.0 mM.
# [6] = Rate of DNA replication in activating egg extract with nocodazole; format: biochemical; conditions: 5 μg/ml nocodazole added to activating egg extract
compound,measurement,setting,value
"C[C@@H]1C[C@@H]([C@H](O)CC2CC(=O)NC(=O)C2)C(=O)[C@@H](C)C1 [CHM, Cycloheximide]",Cpm Incorporated into DNA,"[1]; CHM 100 μg/ml added at 0 minutes, extract from eggs induced 10 minutes","2,894 Cpm"
same,Cpm Incorporated into DNA,[1]; CHM 100 μg/ml added at 5 minutes,"4,208 Cpm"
same,Cpm Incorporated into DNA,[1]; CHM 100 μg/ml added at 15 minutes,"4,937 Cpm"
same,Cpm Incorporated into DNA,[1]; CHM 100 μg/ml added at 30 minutes,"3,775 Cpm"
same,Cpm Incorporated into DNA,[1]; CHM 100 μg/ml added at 45 minutes,"2,314 Cpm"
"[Ca+2].[Cl-].[Cl-] [Ca^2+, CaCl2]",amount and rate of DNA synthesis in erythrocyte nuclei after addition of activating egg extract,erythrocyte nuclei; 100 μM Ca^2+ added to CSF extract,increased both the amount and the rate of DNA synthesis
"Nc1ncnc2c1ncn2[C@@H]1O[C@@H]2COP(=O)(O)O[C@H]2[C@H]1O [Cyclic AMP, Cyclic-AMP]",DNA replication in activated nuclei compared to without any cAMP,[2]; 0.1 μM cAMP,increased
same,DNA replication in activated nuclei compared to without any cAMP,"[2]; 1.0 μM cAMP, compared with 0.1 μM",greater increase
same,DNA replication in activated nuclei compared to without any cAMP,[2]; 10 μM cAMP,inhibits DNA replication
same,Cpm Incorporated After X Minutes,"[2]; 0.1 Micromoles of Cyclic AMP Added, after 0 minutes",14 Cpm
same,Cpm Incorporated After X Minutes,"[2]; 0.1 Micromoles of Cyclic AMP Added, after 45 minutes",51 Cpm
same,Cpm Incorporated After X Minutes,"[2]; 0.1 Micromoles of Cyclic AMP Added, after 90 minutes",68 Cpm
same,Cpm Incorporated After X Minutes,"[2]; 0.1 Micromoles of Cyclic AMP Added, after 135 minutes",290 Cpm
same,Cpm Incorporated After X Minutes,"[2]; 0.1 Micromoles of Cyclic AMP Added, after 180 minutes","1,141 Cpm"
same,Cpm Incorporated After X Minutes,"[2]; 0.1 Micromoles of Cyclic AMP Added, after 240 minutes","2,945 Cpm"
same,Cpm Incorporated After X Minutes,"[2]; 0.1 Micromoles of Cyclic AMP Added, after 300 minutes","2,692 Cpm"
same,Cpm Incorporated After X Minutes,"[2]; 1.0 Micromoles of Cyclic AMP Added, after 0 minutes",10 Cpm
same,Cpm Incorporated After X Minutes,"[2]; 1.0 Micromoles of Cyclic AMP Added, after 45 minutes",14 Cpm
same,Cpm Incorporated After X Minutes,"[2]; 1.0 Micromoles of Cyclic AMP Added, after 90 minutes",56 Cpm
same,Cpm Incorporated After X Minutes,"[2]; 1.0 Micromoles of Cyclic AMP Added, after 135 minutes",564 Cpm
same,Cpm Incorporated After X Minutes,"[2]; 1.0 Micromoles of Cyclic AMP Added, after 180 minutes","2,316 Cpm"
same,Cpm Incorporated After X Minutes,"[2]; 1.0 Micromoles of Cyclic AMP Added, after 240 minutes","4,484 Cpm"
same,Cpm Incorporated After X Minutes,"[2]; 1.0 Micromoles of Cyclic AMP Added, after 300 minutes","5,504 Cpm"
same,Cpm Incorporated After X Minutes,"[2]; 10 Micromoles of Cyclic AMP Added, after 0 minutes",43 Cpm
same,Cpm Incorporated After X Minutes,"[2]; 10 Micromoles of Cyclic AMP Added, after 45 minutes",34 Cpm
same,Cpm Incorporated After X Minutes,"[2]; 10 Micromoles of Cyclic AMP Added, after 90 minutes",31 Cpm
same,Cpm Incorporated After X Minutes,"[2]; 10 Micromoles of Cyclic AMP Added, after 135 minutes",35 Cpm
same,Cpm Incorporated After X Minutes,"[2]; 10 Micromoles of Cyclic AMP Added, after 180 minutes",85 Cpm
same,Cpm Incorporated After X Minutes,"[2]; 10 Micromoles of Cyclic AMP Added, after 240 minutes",168 Cpm
same,Cpm Incorporated After X Minutes,"[2]; 10 Micromoles of Cyclic AMP Added, after 300 minutes",571 Cpm
"CN(C)c1ncnc2nc[nH]c12 [DMAP, 6-dimethylaminopurine]",initial rate and total amount of DNA synthesis,[3],increased
same,lag time before the onset of replication,[3],decreased
C[C@@]1(CO)[C@H](O)CC[C@@]2(C)[C@H]1CC[C@H]1C[C@@H]3C[C@@]12CC[C@]3(O)CO [aphidicolin],replication (biotin labelling),[4],no replication took place
same,nuclear swelling,[4]; absence of replication,many nuclei swelled significantly
Cn1c(=O)c2c(ncn2C)n(C)c1=O [caffeine],initial rate and extent of DNA replication in activated nuclei,[5],highest initial rate and extent of DNA replication
COC(=O)Nc1nc2ccc(C(=O)c3cccs3)cc2[nH]1 [nocodazole],rate of DNA replication,[6],decreases
O=P(O)(O)OC(CO)CO [β-glycerol-PO4],chromatin assembly in CSF extract,erythrocyte nuclei; about 80 mM β-glycerol-PO4,aid in chromatin assembly without causing DNA synthesis
